Test results: ChEMBL document CHEMBL1150773, “Novel donepezil-based inhibitors of acetyl- and butyrylcholinesterase and acetylcholinesterase-induced beta-amyloid aggregation” (J Med Chem, 2008)

What was measured:
Acetylcholinesterase [1] = target: Acetylcholinesterase (Homo sapiens, UniProt P22303)
Description: Inhibition of human erythrocyte AChE by Ellman's assay

Cholinesterase = Cholinesterase (Homo sapiens, UniProt P06276)
Description: Inhibition of human serum BChE by Ellman's assay

Acetylcholinesterase [2] = target: T1, Acetylcholinesterase (Bos taurus, UniProt P23795)
T1 sequence (P23795 whole entry): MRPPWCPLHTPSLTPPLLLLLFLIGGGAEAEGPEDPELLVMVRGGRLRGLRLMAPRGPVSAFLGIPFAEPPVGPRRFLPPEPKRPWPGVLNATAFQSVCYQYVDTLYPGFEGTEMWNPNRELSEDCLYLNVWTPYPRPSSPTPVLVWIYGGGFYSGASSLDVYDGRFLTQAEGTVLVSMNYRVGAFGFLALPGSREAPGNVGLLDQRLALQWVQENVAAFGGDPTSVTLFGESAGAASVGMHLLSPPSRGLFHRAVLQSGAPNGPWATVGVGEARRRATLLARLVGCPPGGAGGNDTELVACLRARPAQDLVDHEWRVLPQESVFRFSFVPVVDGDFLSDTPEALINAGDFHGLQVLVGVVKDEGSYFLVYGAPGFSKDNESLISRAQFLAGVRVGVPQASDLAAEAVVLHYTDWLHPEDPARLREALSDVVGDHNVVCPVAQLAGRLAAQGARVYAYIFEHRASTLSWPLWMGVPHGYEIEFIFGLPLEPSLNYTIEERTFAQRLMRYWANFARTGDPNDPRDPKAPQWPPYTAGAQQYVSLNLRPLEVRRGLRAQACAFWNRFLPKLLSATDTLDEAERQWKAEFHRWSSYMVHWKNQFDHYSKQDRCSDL
Description: Inhibition of bovine erythrocyte AChE by Ellman's assay

Sequence of Acetylcholinesterase (Homo sapiens, UniProt P22303) (P22303 whole entry): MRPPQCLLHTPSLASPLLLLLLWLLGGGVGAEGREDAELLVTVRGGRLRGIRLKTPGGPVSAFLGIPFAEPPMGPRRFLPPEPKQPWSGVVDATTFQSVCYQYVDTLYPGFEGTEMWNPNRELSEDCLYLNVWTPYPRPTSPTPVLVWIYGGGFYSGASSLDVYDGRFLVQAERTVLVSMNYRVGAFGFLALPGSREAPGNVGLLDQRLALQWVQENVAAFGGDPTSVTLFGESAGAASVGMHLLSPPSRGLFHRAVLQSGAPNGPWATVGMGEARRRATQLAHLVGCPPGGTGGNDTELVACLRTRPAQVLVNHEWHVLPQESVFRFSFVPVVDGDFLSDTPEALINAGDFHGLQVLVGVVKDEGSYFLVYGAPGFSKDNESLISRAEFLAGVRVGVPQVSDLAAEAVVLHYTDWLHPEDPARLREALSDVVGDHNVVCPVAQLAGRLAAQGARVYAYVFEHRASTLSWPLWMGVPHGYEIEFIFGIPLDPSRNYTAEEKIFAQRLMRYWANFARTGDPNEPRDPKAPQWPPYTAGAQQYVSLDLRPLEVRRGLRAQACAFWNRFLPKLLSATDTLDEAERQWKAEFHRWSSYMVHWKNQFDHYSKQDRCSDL
Sequence of Cholinesterase (P06276 whole entry): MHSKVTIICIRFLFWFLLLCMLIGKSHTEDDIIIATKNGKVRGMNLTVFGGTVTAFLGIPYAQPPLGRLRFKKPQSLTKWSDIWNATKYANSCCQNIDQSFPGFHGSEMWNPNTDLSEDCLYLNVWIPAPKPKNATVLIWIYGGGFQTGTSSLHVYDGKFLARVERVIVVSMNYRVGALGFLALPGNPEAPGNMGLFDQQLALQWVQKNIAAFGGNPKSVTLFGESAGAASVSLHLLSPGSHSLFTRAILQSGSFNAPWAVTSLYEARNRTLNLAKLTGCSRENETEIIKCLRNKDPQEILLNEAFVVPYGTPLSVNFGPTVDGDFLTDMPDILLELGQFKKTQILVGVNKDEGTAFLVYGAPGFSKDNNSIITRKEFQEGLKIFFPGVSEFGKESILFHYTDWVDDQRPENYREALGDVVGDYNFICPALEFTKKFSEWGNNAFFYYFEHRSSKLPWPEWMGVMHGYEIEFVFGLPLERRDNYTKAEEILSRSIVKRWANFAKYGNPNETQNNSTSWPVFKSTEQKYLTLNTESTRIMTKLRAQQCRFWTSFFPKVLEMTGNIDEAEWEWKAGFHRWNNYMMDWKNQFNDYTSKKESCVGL

Compound	IC50 (Acetylcholinesterase [1])	IC50 (Cholinesterase)	IC50 (Acetylcholinesterase [2])
COc1cc2c(cc1OC)CC(CC1CCN(CCNc3c4c(nc5ccccc35)CCCC4)CC1)C2	5.13 nM	8.06 nM	2.28 nM
COc1cc2c(cc1OC)CC(CC1CCN(CCCNc3c4c(nc5ccccc35)CCCC4)CC1)C2	2.16 nM	7.25 nM	0.82 nM
COc1cc2c(cc1OC)CC(CC1CCN(CCNc3c4c(nc5cc(Cl)ccc35)CCCC4)CC1)C2	2.6 nM	88.7 nM	1.86 nM
COc1cc2c(cc1OC)C(=O)C(CC1CCN(CCNc3c4c(nc5cc(Cl)ccc35)CCCC4)CC1)C2 (configuration not stated)	0.67 nM	136 nM	0.57 nM
COc1cc2c(cc1OC)C(=O)C(CC1CCN(CCCNc3c4c(nc5cc(Cl)ccc35)CCCC4)CC1)C2 (configuration not stated)	–	66.3 nM	–
COc1cc2c(cc1OC)C(=O)C(CC1CCN(CCCNc3c4c(nc5ccccc35)CCCC4)CC1)C2 (configuration not stated)	0.88 nM	12.3 nM	0.29 nM
COc1cc2c(cc1OC)CC(CC1CCN(CCCNc3c4c(nc5cc(Cl)ccc35)CCCC4)CC1)C2	1.06 nM	72.7 nM	0.82 nM
Nc1c2c(nc3cc(Cl)ccc13)CCCC2	–	–	5.73 nM
COc1cc2c(cc1OC)CC(CC1CCN(Cc3ccccc3)CC1)C2	–	6400 nM	1450 nM
